From patent US20080207714A1, “Diagnosis And Treatment Of Breast Cancer” (THE REGENTS OF THE UNIVERSITY OF MICHIGAN, priority 2006, published 2008)

Assays:
Type in all cases: cell-based
Settings in all cases: reduction of AT-mediated invasion, losartan 2 uM
[1] = system: BT549 breast cancer cells; experiment: Matrigel cell invasion assay, BT549
[2] = system: 578T breast cancer cells; experiment: Matrigel cell invasion assay, 578T
[3] = system: MCF-7 breast cancer cells; experiment: Matrigel cell invasion assay, MCF7
[4] = system: H16N2 immortalized benign breast epithelial cell line; experiment: Matrigel cell invasion assay, H16N2
[5] = system: DU145 prostate cancer cells; experiment: Matrigel cell invasion assay, DU145

SMILES: CCCCc1nc(Cl)c(CO)n1Cc1ccc(-c2ccccc2-c2nn[nH]n2)cc1 [Lo, Losartan]
- Lo (2 uM) % Red. [1]: 72.4%
- Lo (2 uM) % Red. ([1]; listed as losartan): 72%
- Lo (2 uM) % Red. [2]: 67.9%
- Lo (2 uM) % Red. ([2]; listed as losartan): 68%
- Lo (2 uM) % Red. [3]: 56.7%
- Lo (2 uM) % Red. [4]: 16.7%
- Lo (2 uM) % Red. [5]: 35.0%
